The values below come from patent publication US20250161408A1, “PEPTIDIC INHIBITORS OF AMYLOID SELF- AND CROSS-ASSEMBLY” (TECHNISCHE UNIVERSITÄT MÜNCHEN, priority 2022, published 2025).

The subject of series [1] is proteinase K. The series can be described thus: Proteinase K (PK) fibril digestion assay with dot blot. To be noted: IAPP-related fibrils; 37° C.; dot blot with anti-fIAPP and anti-Aβ antibodies. On the procedure:
Solutions made as above but w/o PK were used as controls for 100% undigested fibrils. Solutions were incubated at 37° C. and at indicated time points aliquots were dotted onto nitrocellulose membranes and spots were quickly dried by air. Membranes were washed (TBS-T) and blocked (5% milk in TBS-T, overnight (10° C.)). […] Primary antibodies were combined with goat anti-mouse-POD (1:1000) or donkey anti-rabbit-POD (1:5000); detection was as under “Cross-linking, NuPAGE and WB”.

The target of series [2] is T1, fIAPP (Homo sapiens, UniProt P10997).
T1 construct: made in house; host or cells: chemical synthesis (Fmoc-SPPS), air-oxidised, RP-HPLC purified
T1 sequence (P10997 34-70 limits assumed): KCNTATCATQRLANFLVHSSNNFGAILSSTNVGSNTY
The series can be described thus: Dot blot binding of Fluos-peptides to fIAPP. Conditions: Fluos-peptides 0.2 μM. Here is the method:
After blocking (5% milk in TBS-T, 2 h, RT) and several washing steps (with TBS-T and ThT buffer), membranes were incubated with N-terminal fluorescein-labeled ACMs (Fluos-ACMs) at 0.2 μM for IAPP-related membranes or 2 μM for Aβ42-related membranes; incubation was overnight (10° C.) in ThT buffer (containing 1% HFIP). To control for fibril autofluorescence, similar membranes were incubated in parallel with buffer only. Bound peptides were visualized using a LAS-400 mini instrument (Fujifilm) equipped with a suitable fluorescence filter.

In series [3] the target is T2, Aβ42 (Homo sapiens, UniProt P05067).
T2 construct: the 40(42)-residue peptide Aβ40(42); made in house; host or cells: chemical synthesis (Fmoc-SPPS), monomer isolated by SEC
T2 sequence (P05067 672-713): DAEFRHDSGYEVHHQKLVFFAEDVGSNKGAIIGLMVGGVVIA
The series can be described thus: cell-based. Conditions: read-out: IC50 (±SD) of inhibitory effects of ACMs on Aβ42-mediated cell damage. Here is the method:
Following incubation with the cells for ˜20 h (37° C., humidified atmosphere, 5% CO2), cell damage was assessed by measuring cellular MTT reduction.
Solutions were aged for 1.5 h (37° C., shaking 500 rpm). Aliquots were diluted with cell medium, incubated with PC12 cells at the indicated final concentrations for ˜20 h and cellular MTT reduction was measured as above.

The subject of series [4] is cultured murine BV2 microglia. The series can be described thus: Phagocytosis of Aβ42 species with or without ACM. The class given is cell-based, mouse. Conditions: 1/1, co-incubation 2 h. Here is the method:
Briefly, BV2 cells were maintained in GlutaMAX-supplemented RPMI1640 medium containing 10% FBS and 1% penicillin/streptomycin on poly-L-ornithine-coated flasks. For the phagocytosis assay, BV2 cells were seeded into 24-well plates containing coverslips in serum-free RPMI1640-GlutaMAX and further incubated for 24 h (5% CO2, 37° C.) to reach 10000 cells/well. Primary BMDMs were obtained from bone-marrow monocytes isolated from wildtype C57BL/6 mice, plated in 24-well plates at a density of 10000cells/well, and differentiated with L929 cell-conditioned medium (RPMI1640, 10% FBS, 1% penicillin/streptomycin) for 7 days. Thereafter, cells were incubated with aged peptide solutions at 37° C. for 6 h. […]
Following incubation of the cells with the peptides, supernatants were removed and cells on the coverslips were washed 5 times with ice-cold 1×PBS, fixed with 4% paraformaldehyde, washed with 1×PBS, permeabilized with 0.2% Triton-X 100, and rinsed three times with cold 1×PBS. […] Images were acquired using a Leica DMi8 fluorescence microscope. The percentage of cells that had taken up peptides was calculated by dividing the number of BV2 cells or BMDMs that phagocytosed TAMRA-labeled peptide by the total cell count, multiplied by 100. Significance was analyzed by unpaired student's t-test.

For series [5], the target named is T2, Aβ42. As to the kind of experiment: ThT binding assay of Aβ42 fibrillogenesis (self-assembly, seeding, cross-seeding). The class given is biochemical. On the procedure:
Aβ42 fibrillogenesis-related studies. […] Peptide incubations were performed in the presence of ThT in 96-well black MTPs (FluoroNunc, Thermo Fisher Scientific). […] Values of seeds or buffer alone were subtracted from the data in self-/cross-seeding assays; all other data shown are raw data except for data in FIG. 27b which were normalized).
Incubations (37° C.) and determination of ThT fluorescence were performed as for all other Aβ42-related studies.

The target of series [6] is T3, IAPP (Homo sapiens, UniProt P10997).
T3 construct: made in house; host or cells: chemical synthesis (Fmoc-SPPS), air-oxidised, RP-HPLC purified
T3 sequence (P10997 34-70 limits assumed): T1 sequence (P10997 34-70 limits assumed)
As to the kind of experiment: MTT reduction assay of IAPP-mediated cell damage in RIN5fm cells. In kind it is cell-based. Here is the method:
Briefly, cells were cultivated and platted in 96-well plates. Aliquots of solutions used for the ThT binding assays (see “ThT binding assays”) were diluted with cell medium at the indicated incubation time points (24 h or 7 days) and added to the cells at the indicated final concentrations. Following incubation with the cells for ˜20 h (37° C., humidified atmosphere, 5% CO2) cell damage was assessed by measuring cellular MTI reduction. IC50 values were determined.

Series [7] deals with T2, Aβ42. As to the kind of experiment: Fluorescence spectroscopic titration of FITC-Aβ42 with ACMs. Conditions: read-out: app. KD (±SD) of ACM/Aβ42 interactions; N-terminal FITC-labelled Aβ42 5 nM, pH 7.4; means from three binding curves. Here is the method:
Fluorescence spectroscopic studies were performed with a Jasco FP-6500 fluorescence spectrophotometer. Briefly, excitation was at 492 nm and spectra were measured between 500 and 600 nm. All titrations were performed in freshly made solutions of synthetic N-terminal fluorescently labeled peptide (5 nM) and various amounts of unlabeled peptide in 10 mM sodium phosphate buffer, pH 7.4 (1% HFIP) within 2-5 min following solution preparation. Under these experimental conditions, freshly made solutions of Fluos-IAPP and FITC-Aβ42 (5 nM) consist mostly of monomers and the same was found for Fluos-ACMs (5 nM) (FIG. 13e and data not shown). Apparent binding affinities (app. KDs) were estimated by using 1/1 binding models. However, due to the high self-assembly propensities of involved peptides more complex models might also apply. Determined app. KDs are means (±SD) from three binding curves derived from three independent titration assays.

“Also recorded” adds a separate entry of the source. Non-standard residues stand in square brackets, D forms with d. Residues, ends and D or L forms follow the SMILES beside them. NMeF = CN[C@@H](Cc1ccccc1)C(=O)O; NMeV = CN[C@H](C(=O)O)C(C)C; Nle = CCCC[C@H](N)C(=O)O

For the compound `CC[C@H](C)[C@H](NC(=O)[C@H](C)NC(=O)CNC(=O)[C@H](Cc1ccccc1)NC(=O)[C@H](CC(N)=O)NC(=O)[C@H](CC(N)=O)NC(=O)[C@H](CO)NC(=O)[C@H](CO)NC(=O)[C@H](Cc1c[nH]cn1)NC(=O)[C@@H](NC(=O)[C@H](CC(C)C)NC(=O)[C@H](Cc1ccccc1)NC(=O)[C@H](CC(N)=O)NC(=O)[C@H](C)NC(=O)[C@H](CC(C)C)NC(=O)[C@H](CCCNC(=N)N)NC(=O)[C@H](CCC(N)=O)NC(=O)[C@@H](NC(=O)[C@H](C)NC(=O)[C@@H]1CSSC[C@H](NC(=O)[C@@H](N)CCCCN)C(=O)N[C@@H](CC(N)=O)C(=O)N[C@@H]([C@@H](C)O)C(=O)N[C@@H](C)C(=O)N[C@@H]([C@@H](C)O)C(=O)N1)[C@@H](C)O)C(C)C)C(=O)N[C@@H](CC(C)C)C(=O)N[C@@H](CO)C(=O)N[C@@H](CO)C(=O)N[C@H](C(=O)N[C@@H](CC(N)=O)C(=O)N[C@H](C(=O)NCC(=O)N[C@@H](CO)C(=O)N[C@@H](CC(N)=O)C(=O)N[C@H](C(=O)N[C@@H](Cc1ccc(O)cc1)C(N)=O)[C@@H](C)O)C(C)C)[C@@H](C)O` [IAPP], in series [1], the “Time to degradation by proteinase K” value is recorded as “at least 30 h”.
“QKL(N-Me)VF(N-Me)FAED - Val-Gly-Ser - NKGAIIGLNleVGGVV (H-QKL[NMeV]F[NMeF]AEDVGSNKGAIIGL[Nle]VGGVV-OH; SMILES CCCC[C@H](NC(=O)[C@H](CC(C)C)NC(=O)CNC(=O)[C@@H](NC(=O)[C@@H](NC(=O)[C@H](C)NC(=O)CNC(=O)[C@H](CCCCN)NC(=O)[C@H](CC(N)=O)NC(=O)[C@H](CO)NC(=O)CNC(=O)[C@@H](NC(=O)[C@H](CC(=O)O)NC(=O)[C@H](CCC(=O)O)NC(=O)[C@H](C)NC(=O)[C@H](Cc1ccccc1)N(C)C(=O)[C@H](Cc1ccccc1)NC(=O)[C@H](C(C)C)N(C)C(=O)[C@H](CC(C)C)NC(=O)[C@H](CCCCN)NC(=O)[C@@H](N)CCC(N)=O)C(C)C)[C@@H](C)CC)[C@@H](C)CC)C(=O)N[C@H](C(=O)NCC(=O)NCC(=O)N[C@H](C(=O)N[C@H](C(=O)O)C(C)C)C(C)C)C(C)C) [VGS-VF]”: the “Binding to fIAPP (dot blot)” value in series [2] is on record as “bind fIAPP”.
In the case of `CCCC[C@H](NC(=O)[C@H](CC(=O)O)NC(=O)[C@H](CCC(=O)O)NC(=O)[C@H](C)NC(=O)[C@H](Cc1ccccc1)N(C)C(=O)[C@H](Cc1ccccc1)NC(=O)[C@H](C(C)C)N(C)C(=O)[C@H](CC(C)C)NC(=O)[C@H](CCCCN)NC(=O)[C@@H](N)CCC(N)=O)C(=O)N[C@@H](CCCC)C(=O)N[C@@H](CCCC)C(=O)N[C@@H](CC(N)=O)C(=O)N[C@@H](CCCCN)C(=O)NCC(=O)N[C@@H](C)C(=O)N[C@H](C(=O)N[C@H](C(=O)NCC(=O)N[C@@H](CC(C)C)C(=O)N[C@@H](CCCC)C(=O)N[C@H](C(=O)NCC(=O)NCC(=O)N[C@H](C(=O)N[C@H](C(=O)O)C(C)C)C(C)C)C(C)C)[C@@H](C)CC)[C@@H](C)CC` [Nle3-VF] (H-QKL[NMeV]F[NMeF]AED[Nle][Nle][Nle]NKGAIIGL[Nle]VGGVV-OH), the IC50 in series [3] came to 367 nM; in series [6] (read-out: IC50 (±SD) of inhibitory effects of ACMs on IAPP-mediated cell damage), 65 nM. The “Effect of addition to TAMRA-oAβ42 on Aβ42 phagocytosis” value in series [4] was “increased Aβ42 phagocytosis”. In addition, the “Effect of addition to preformed toxic Aβ42 oligomers on fibrillogenesis (ThT binding)” value in series [5] (2 h-aged Aβ42, 1/1) is on record as “delay of fibrillogenesis”. In addition, in series [5] (Aβ42 5 μM, post-nucleation addition), the “Effect of addition to already nucleated Aβ42 fibrillogenesis (ThT binding)” value is “does not affect amounts of already formed ThT-positive fibrils”. The “Effect of addition to preformed fIAPP on fIAPP cytotoxicity (MTT reduction)” value in series [6] (RIN5fm cells, ACM 33 μM added to fIAPP […], 1 day, fIAPP 500 nM) was “does not affect fIAPP cytotoxicity”. Besides, the “Effect on formation of cytotoxic IAPP assemblies (MTT reduction)” value in series [6] (RIN5fm cells, aged (24 h or 7 days) IAPP/peptide 1/2 solutions) is “fully suppressed; also recorded: suppress formation of toxic IAPP assemblies”. The Kd in series [7] turned out to be 14.5 ± 8 nM.
